Results reported in patent US20170209579A1, “NON-INVASIVE RADIOFREQUENCY FIELD TREATMENT FOR CANCER THERAPY” (Baylor College of Medicine, priority 2014, published 2017).

Key:
Format in all cases: cell-based, human
Hep3B cells [1] = experiment: Cell cycle analysis (BrdU flow cytometry) in Hep3B cells
Description: For cell cycle analysis a BrdU-labeling protocol from BrdU Flow Kit (BD Pharmingen, San Diego, Calif.) was used according to the supplied instructions. Data was analyzed using FlowJo 7.63 (Tree Star, Inc., Ashland, Oreg.). For cell cycle analysis, a BrdU-labeling protocol was used to identify cells in S-phase of the cell cycle accurately. Cells were harvested from an exponentially growing culture as described for other experiments and seeded in 6-well plates, approximately 150,000 cells per well. After 24-hours adherent sub-confluent monolayers were noted and cells were exposed to various experimental conditions. At the end of the treatments, cells were washed and sampled at various time points to study the progression of the cell cycle in time. One hour before each time point, cells were pulsed with BrdU (10 μM) for 1 hour. BrdU gets incorporated in the DNA of cells in S-phase along with other nucleotides and can be detected using a mouse FITC conjugated anti-BrdU antibody. A BrdU Flow Kit (BD Pharmingen, San Diego, Calif.) was used according to the supplied instructions without modifications. For counterstaining of DNA content, cells were incubated with 7-amino-actinomycin D (7-AAD) supplied with the kit, on ice for 20 minutes before analysis on a BD LSR II flowcytometer (BD biosciences San Jose, Calif.). Single cell populations were identified using forward and side-scatter profiles. A total of 10,000 events were recorded from a gated single cell population. For 7-AAD fluorescence measurements, a SORP YG laser (561 nm) was used to excite the cells and emission was recorded through a 630LP filter followed by a 660/20 filter. For FITC fluorescence measurements, a SORP blue laser (488 nm) was used to excite the cells and emission was recorded through 505LP filter followed by a 525/50 filter. There was no spectral over-lap between the two emission spectra and compensation was not required. Data was analyzed using FlowJo 7.63 (Tree Star, Inc., Ashland, Oreg.). […] Cell cycle progression was analyzed over time (FIGS. 16 and 17). […]

SNU449 cells = experiment: Clonogenic assay, SNU449 cells; conditions: irrespective of dose schedule
Description: (§1) Clonogenic assay estimates single-cell reproductive viability by measuring the ability of a single cell to form a colony of 50 cells or more. Clonogenic assay in this study was performed as described previously (Franken et al., 2006). Briefly, cancer cells from an exponentially growing, sub-confluent culture were trypsinized and harvested. Approximately 200 cells were counted and plated in each well of a 6-well plate. Approximately 12 hours later, the cells were adherent and treatment conditions were introduced as described herein. After varying treatments, media was replaced and cells were allowed 14 days to form colonies. Subsequently, the media was aspirated and cells were washed with PBS once. Colonies were then fixed with glutaraldehyde (6.0% v/v) and stained with crystal violet (0.5% w/v) for 30 minutes on a leveled shaker at 50 RPM. The fixation and staining solution was then aspirated and the 6-well plates were air-dried after gentle rinsing with tap water. The number of colonies in each well was counted using a colony counting grid. […]
(§2) Clonogenic assays were performed on Hep3B cells and SNU449 cells after one of two combinations of hyperthermia and gemcitabine compared with hyperthermia or gemcitabine alone. […] Next, clonogenic viability was evaluated at a gemcitabine concentration of 5 ng/ml and varied the duration of hyperthermia (30 minutes to 4 hours).

Hep3B cells [2] = experiment: Clonogenic assay, Hep3B cells
Description: as §1
as §2, with “hours). […]” for “hours).”

With Nc1ccn([C@@H]2O[C@H](CO)[C@@H](O)C2(F)F)c(=O)n1 [gemcitabine, 2′,2′-difluoro 2′-deoxycytidine] the “cell cycle progression, gemcitabine followed by hyperthermia compared with gemcitabine alone” value (Hep3B cells [1]; 1 μM 24 hours, last two hours at 42.5° C.) was “much slower progression through late-S and G2/M phases”, the cell cycle progression (Hep3B cells [1]; 1 μM gemcitabine, 24-hour incubation) was “completely halts cell cycle progression” and the “cell cycle recovery once gemcitabine is removed” value (Hep3B cells [1]; after 24 hours 1 μM gemcitabine) was “cells resume synchronized DNA synthesis in 24 hours”. The “clonogenic survival, gemcitabine combined with hyperthermia” value (SNU449 cells) was “dose-dependent enhancement of gemcitabine toxicity”, the “clonogenic survival, gemcitabine combined with hyperthermia” value (Hep3B cells [2]; Hep3B, irrespective of dose schedule) was “dose-dependent enhancement of gemcitabine toxicity” and the “clonogenic viability, varied duration of hyperthermia” value (Hep3B cells [2]; gemcitabine 5 ng/ml, hyperthermia 30 minutes to 4 hours, cell line not named in the sentence (Hep3B and SNU449 in FIG. 17)) was “thermal dose-dependent enhancement in toxicity”.
